Source: US20240228572A1 (i2o Therapeutics, Inc., priority 2020, published 2024)
pEC50: −log10 of the molar value. *1 amine or outer side, *2 acyl side, *3 side chain or, on linkers, in order; H or OH if unused. Where a SMILES comes first, the peptide text is derived from it. Side-chain parts run from the residue outwards. [ ]: non-standard residue; d: D form. The star is where a group is joined. C20 diacid = O=C(O)CCCCCCCCCCCCCCCCCCC(=O)*; γGlu = O=C(O)[C@H](CCC(=O)[*:2])N[*:1]; AEEA = NCCOCCOCC(=O)O; Aib = CC(C)(N)C(=O)O

How the values were obtained:
hGIPR = biological target: T1, hGIPR (Homo sapiens, UniProt P48546); assay: cAMP accumulation assay, hGIPR; format: cell-based
T1 sequence (P48546 22-466): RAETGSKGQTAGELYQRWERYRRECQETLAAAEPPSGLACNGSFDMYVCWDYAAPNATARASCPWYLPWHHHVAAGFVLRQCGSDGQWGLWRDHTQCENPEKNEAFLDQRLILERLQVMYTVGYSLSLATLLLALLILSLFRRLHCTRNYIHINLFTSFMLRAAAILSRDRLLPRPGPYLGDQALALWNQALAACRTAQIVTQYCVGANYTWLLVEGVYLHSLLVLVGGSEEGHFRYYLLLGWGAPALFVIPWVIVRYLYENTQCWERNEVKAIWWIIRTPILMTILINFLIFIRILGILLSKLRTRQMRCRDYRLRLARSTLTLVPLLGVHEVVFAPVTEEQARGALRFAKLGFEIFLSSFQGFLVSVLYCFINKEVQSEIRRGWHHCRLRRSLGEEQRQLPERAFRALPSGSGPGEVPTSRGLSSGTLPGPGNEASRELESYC
Description: On day 1, CHO-K1 cells were plated at 1.5 million cells per T75 flask in 90% F12-K media supplemented with 10% FBS. On day 3 cells were transfected with 40 mcg of each expression plasmid using Lipofectamine 2000 transfection reagent. On day 5, cells were dispensed at 1000 cells per well in white 384-well OptiPlates in 5 mcL of assay buffer consisting of 1×HBSS, 5 mM HEPES, 0.5 mM IBMX, and 0.1% casein.
Peptides were serially diluted 4-fold in assay buffer to final concentrations ranging from 1×10^−9 M to 9.5×10^−16 M. Two assay controls consisting of 50 mcM forskolin (cAMP system maximum) or assay buffer only (cAMP system minimum) were also prepared. Five microliters of each peptide-concentration, or assay control, was added to triplicate wells and incubated for thirty minutes at room temperature. […] Plates were read on an Envision fluorescent plate reader (PerkinElmer).
Test values were first normalized to the system maximum and system minimum averaged values in Excel using the formula: (test value−system min average)/(system max average -system min average)*100. […] Data from up to 3 replicate tests were analyzed for each peptide. […]

rat GCGR = biological target: T2, rat GCGR (Rattus norvegicus, UniProt P30082); assay: cAMP accumulation assay, CHO-K1 cells expressing rat GCGR; format: cell-based
T2 construct: A cDNA fragment encoding the full-length open reading frame of the rat GCGR; expressed in transfected cells; host or cells: CHO-K1, pcDNA3.1+, Lipofectamine 2000
T2 sequence (P30082 27-485): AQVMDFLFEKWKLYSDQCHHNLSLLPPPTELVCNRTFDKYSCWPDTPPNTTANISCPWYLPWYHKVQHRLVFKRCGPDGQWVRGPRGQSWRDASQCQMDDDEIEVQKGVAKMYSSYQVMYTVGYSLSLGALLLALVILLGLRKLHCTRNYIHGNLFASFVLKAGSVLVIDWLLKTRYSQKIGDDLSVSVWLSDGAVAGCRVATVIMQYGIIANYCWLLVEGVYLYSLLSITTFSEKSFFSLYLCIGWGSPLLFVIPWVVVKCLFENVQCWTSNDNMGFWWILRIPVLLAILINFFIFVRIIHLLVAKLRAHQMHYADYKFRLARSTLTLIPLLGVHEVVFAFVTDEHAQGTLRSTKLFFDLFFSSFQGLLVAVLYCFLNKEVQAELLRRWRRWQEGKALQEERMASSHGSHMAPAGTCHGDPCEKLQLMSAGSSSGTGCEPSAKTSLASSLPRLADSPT
From the text: In the presence of the non-specific cAMP/cGMP phosphodiesterase inhibitor, 3-isobutyl-1-methylxanthine (IBMX), accumulating cAMP can be measured in vitro using common detection methods. Thus, it is possible to estimate an in vitro potency (pEC50) for peptides activating each of these receptors using fit dose-response curves for cAMP accumulation.
A cDNA fragment encoding the full-length open reading frame of the cynomolgus monkey GLP-1R (Genebank accession #XM_028847603 was cloned into pcDNA3.1+ for expression in CHO-K1 cells. A cDNA fragment encoding the full-length open reading frame of the human GCGR (Genebank accession #NM_000160 was cloned into pcDNA3.1+ for expression in CHO-K1 cells. A cDNA fragment encoding the full-length open reading frame of the rat GCGR (Genebank accession #NM_12091 was cloned into pcDNA3.1+ for expression in CHO-K1 cells. A cDNA fragment encoding the full-length open reading frame of the cynomolgus monkey GCGR (Genebank accession #XM_005585255 was cloned into pcDNA3.1+ for expression in CHO-K1 cells. […]
Peptides were serially diluted 4-fold in assay buffer to final concentrations ranging from 1×10^−9 M to 9.5×10^−16 M. Two assay controls consisting of 50 mcM forskolin (cAMP system maximum) or assay buffer only (cAMP system minimum) were also prepared. […] Plates were read on an Envision fluorescent plate reader (PerkinElmer). […]

[1] = Subcutaneous bolus injection pharmacokinetics / bioavailability in rats; format: in vivo; conditions: rat, plasma; SC bolus 0.11 mg/kg, male Sprague-Dawley rats
Description: Peptides were dissolved in sterile saline and administered to non-fasted male Sprague-Dawley rats (n=3 per group) at a dose of 0.1 mg/kg via a single bolus injection into the subcutaneous space between the scapulae. Blood samples (approximately 250 μL) were collected for pharmacokinetic analysis via a jugular vein cannula at 0.083, 0.25, 0.5, 1, 2, 4, 8, 24, 48, 72, 96, and 120 hr post-dose into microtainer tubes containing K2EDTA as anticoagulant and 25 μL of a protease inhibitor cocktail. Plasma was prepared by centrifugation and stored at −80° C. until analysis.
A 70 μL aliquot of each plasma sample was placed into to a 96-well plate. To each well was added 210 μL of 0.1% TFA in 2:1 ethanol:acetonitrile containing an appropriate internal standard. Plates were vortex mixed for 10 min at 1300 rpm, and then centrifuged for 10 min at 500× g. Supernatants (210 μL) were placed into a clean 96-well plate and evaporated under a nitrogen stream at 45° C. Residues were reconstituted in 80 μL of 20% acetonitrile (aq) containing 0.1% formic acid.
All calibration standards were prepared in control rat plasma containing K2EDTA and protease inhibitor cocktail.
Samples and standards were analyzed by electrospray ionization (ESI) UPLC-MS/MS using a system consisting of a CTC HTS PAL auto-injector (Leap, Carrboro, NC), an Agilent Infinity 1290 system with column oven (Palo Alto, CA), a Valco switching valve (Houston, TX), and a Sciex TripleTOF® 5600 mass spectrometer (Framingham, MA). Samples were injected onto a 2.1×50 mm reverse phase C18 analytical column, typically a Waters CORTECS UPLC C18+, 1.6 μm (Waters Corporation, Milford, MA) or similar. […] Initial conditions consisted of 95% A and 5% B. The organic component was increased to 95% B over a period of 3-4 minutes, depending on the peptide. Typical flow rates were 550 μL/min. The column temperature was held constant at 45° C. Peptides were quantified by monitoring one or more product ions produced from a multiply charged parent ion.

serum albumin = serum albumin (Macaca fascicularis, UniProt A2V9Z4); assay: Fraction unbound (fu) in plasma by surface plasmon resonance, monkey; format: in vitro ADME; conditions: SPR binding to serum albumin
Chain of serum albumin (A2V9Z4 25-608): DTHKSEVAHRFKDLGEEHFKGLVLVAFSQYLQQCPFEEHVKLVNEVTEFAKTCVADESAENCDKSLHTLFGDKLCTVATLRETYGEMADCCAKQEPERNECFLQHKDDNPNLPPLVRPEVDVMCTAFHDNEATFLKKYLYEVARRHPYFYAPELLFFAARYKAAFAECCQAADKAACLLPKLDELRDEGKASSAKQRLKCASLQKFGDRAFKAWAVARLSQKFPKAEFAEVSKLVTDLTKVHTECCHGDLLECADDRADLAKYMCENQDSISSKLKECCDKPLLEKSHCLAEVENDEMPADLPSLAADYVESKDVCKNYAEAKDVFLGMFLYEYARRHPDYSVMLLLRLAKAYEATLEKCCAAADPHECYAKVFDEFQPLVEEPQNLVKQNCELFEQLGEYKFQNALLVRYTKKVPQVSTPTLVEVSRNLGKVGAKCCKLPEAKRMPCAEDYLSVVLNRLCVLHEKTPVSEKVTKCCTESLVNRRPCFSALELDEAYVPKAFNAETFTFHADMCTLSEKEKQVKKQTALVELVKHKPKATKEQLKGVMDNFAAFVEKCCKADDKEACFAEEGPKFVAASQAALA
Description: Conventional methods of measuring plasma protein binding, such as equilibrium dialysis, ultrafiltration and ultracentrifugation, are not reliable with peptides because of their tendency to adsorb to the surface of plastic tubing, dialysis membranes and molecular weight cut-off filters. As a result, the extent to which acylated peptides bind to serum albumin was evaluated using surface plasmon resonance (SPR).

**Q.** Which results are given for `CC(C)C[C@H](NC(=O)[C@H](Cc1ccc(O)cc1)NC(=O)[C@H](CCCCN)NC(=O)[C@H](CO)NC(=O)[C@H](Cc1ccc(O)cc1)NC(=O)[C@H](CC(=O)O)NC(=O)[C@H](CO)NC(=O)[C@@H](NC(=O)[C@H](Cc1ccccc1)NC(=O)[C@@H](NC(=O)CNC(=O)[C@H](Cc1c[nH]cn1)NC(=O)[C@H](CO)NC(=O)[C@@H](N)Cc1ccc(O)cc1)[C@@H](C)O)[C@@H](C)O)C(=O)N[C@@H](CC(=O)O)C(=O)NC(C)(C)C(=O)N[C@@H](CCCCN)C(=O)N[C@@H](Cc1ccc(O)cc1)C(=O)N[C@@H](C)C(=O)N[C@@H](CCC(N)=O)C(=O)N[C@@H](CCCCNC(=O)CC[C@H](NC(=O)CC[C@H](NC(=O)COCCOCCNC(=O)CCCCCCCCCCCCCCCCCCC(=O)O)C(=O)O)C(=O)O)C(=O)N[C@@H](Cc1ccccc1)C(=O)N[C@H](C(=O)NC(C)(C)C(=O)N[C@@H](Cc1c[nH]c2ccccc12)C(=O)N[C@@H](CC(C)C)C(=O)N[C@@H](CCC(=O)O)C(=O)N[C@@H](CC(=O)O)C(=O)N[C@@H](CCC(=O)O)C(=O)N1CCC[C@H]1C(=O)N[C@@H](CO)C(=O)N[C@@H](CO)C(=O)NCC(=O)N[C@@H](C)C(=O)N1CCC[C@H]1C(=O)N1CCC[C@H]1C(=O)N1CCC[C@H]1C(=O)N[C@@H](CO)C(=O)O)C(C)C` [Compound A6] (H-YSHGTFTSDYSKYLD[Aib]KYAQK([γGlu-γGlu-AEEA-C20 diacid])FV[Aib]WLEDEPSSGAPPPS-OH; N-terminus assumed)?
**A.** pEC50 (hGIPR): < 9.00; pEC50 (rat GCGR): 10.30; Cmax [1]: 462 ng/mL; Tmax [1]: 8 to 24 h; bioavailability [1]: 94.9%; half-life [1]: 15.8 h; fraction unbound (serum albumin): 0.0048
